# Test results taken from publication PMC5218480 (PLoS ONE, 2017).
# Tested on: MV-4-11 cells
# Test: Gene expression microarray analysis (Affymetrix PrimeView) and GSEA
# Format: cell-based, human
# Set-up: RFU PODN (11730768_x_at) / Fold change /veh PODN (11730768_x_at) / RFU LINC00158 (11744669_a_at) / Fold change /veh LINC00158 (11744669_a_at) / RFU DUSP10 (11751237_a_at) / Fold change /veh DUSP10 (11751237_a_at) / RFU ID3 (11757404_x_at) / Fold change /veh ID3 (11757404_x_at) / RFU PLEKHG5 (11737974_s_at) / Fold change /veh PLEKHG5 (11737974_s_at) / RFU LRRC4B (11730491_at) / Fold change /veh LRRC4B (11730491_at) / RFU GIMAP4 (11747438_a_at) / Fold change /veh GIMAP4 (11747438_a_at) / RFU KRT8 (11758183_x_at) / Fold change /veh KRT8 (11758183_x_at) / RFU CNN1 (11734310_a_at) / Fold change /veh CNN1 (11734310_a_at) / RFU VPS37D (11726825_at) / Fold change /veh VPS37D (11726825_at) / RFU C10orf10 (11716522_x_at) / Fold change /veh C10orf10 (11716522_x_at) / RFU KIR2DL2 /// KIR2DL4 /// KIR2DL5A /// KIR2DL5B /// KIR2DS1 /// KIR2DS2 /// KIR2DS3 /// KIR2DS4 /// KIR3DL3 /// KIR3DL3 /// KIR3DS1 (11738374_at) / Fold change /veh KIR2DL2 /// KIR2DL4 /// KIR2DL5A /// KIR2DL5B /// KIR2DS1 /// KIR2DS2 /// KIR2DS3 /// KIR2DS4 /// KIR3DL3 /// KIR3DL3 /// KIR3DS1 (11738374_at) / RFU C1QL1 (11718748_at) / Fold change /veh C1QL1 (11718748_at) / RFU TMPRSS4 (11747572_a_at) / Fold change /veh TMPRSS4 (11747572_a_at) / RFU HAMP (11756126_x_at) / Fold change /veh HAMP (11756126_x_at) / RFU RNFT2 (11725882_a_at) / Fold change /veh RNFT2 (11725882_a_at) / RFU NR4A2 (11747474_a_at) / Fold change /veh NR4A2 (11747474_a_at) / RFU ABCC12 (11746883_a_at) / Fold change /veh ABCC12 (11746883_a_at) / RFU TMEM136 (11760407_x_at) / Fold change /veh TMEM136 (11760407_x_at) / RFU CLDN22 /// WWC2 (11732394_at) / Fold change /veh CLDN22 /// WWC2 (11732394_at) / RFU HLA-DPB1 (11760878_x_at) / Fold change /veh HLA-DPB1 (11760878_x_at) / RFU SPINT1 (11716480_a_at) / Fold change /veh SPINT1 (11716480_a_at) / RFU GAP43 (11754022_s_at) / Fold change /veh GAP43 (11754022_s_at) / RFU A4GNT (11735810_at) / Fold change /veh A4GNT (11735810_at) / RFU PRB3 (11715151_x_at) / Fold change /veh PRB3 (11715151_x_at) / RFU TUBB4B (11761932_at) / Fold change /veh TUBB4B (11761932_at) / RFU CAPN14 (11732068_a_at) / Fold change /veh CAPN14 (11732068_a_at) / RFU TMCC2 (11721928_a_at) / Fold change /veh TMCC2 (11721928_a_at) / RFU IRGQ (11745062_a_at) / Fold change /veh IRGQ (11745062_a_at) / RFU FAM174B (11720279_a_at) / Fold change /veh FAM174B (11720279_a_at) / RFU TMPRSS4 (11748680_a_at) / Fold change /veh TMPRSS4 (11748680_a_at) / RFU FAM212B (11763350_a_at) / Fold change /veh FAM212B (11763350_a_at) / RFU PLEKHG5 (11743358_a_at) / Fold change /veh PLEKHG5 (11743358_a_at) / RFU ZSCAN30 (11745921_a_at) / Fold change /veh ZSCAN30 (11745921_a_at) / RFU CMKLR1 (11741424_a_at) / Fold change /veh CMKLR1 (11741424_a_at) / RFU LOC101060620 /// MAPK8IP1 (11723275_at) / Fold change /veh LOC101060620 /// MAPK8IP1 (11723275_at) / RFU SPTSSB (11747773_x_at) / Fold change /veh SPTSSB (11747773_x_at) / RFU PRSS12 (11739890_at) / Fold change /veh PRSS12 (11739890_at) / RFU BIN1 (11741810_x_at) / Fold change /veh BIN1 (11741810_x_at) / RFU WNT11 (11732464_a_at) / Fold change /veh WNT11 (11732464_a_at) / RFU C10orf10 (11716521_a_at) / Fold change /veh C10orf10 (11716521_a_at) / RFU C5orf56 (11738089_at) / Fold change /veh C5orf56 (11738089_at) / RFU CYB561 (11721691_x_at) / Fold change /veh CYB561 (11721691_x_at) / RFU ANKRD19P (11752326_a_at) / Fold change /veh ANKRD19P (11752326_a_at) / RFU OR2T12 /// OR2T33 /// OR2T8 (11738714_s_at) / Fold change /veh OR2T12 /// OR2T33 /// OR2T8 (11738714_s_at) / RFU VCAN (11748164_a_at) / Fold change /veh VCAN (11748164_a_at) / RFU JSRP1 (11732532_at) / Fold change /veh JSRP1 (11732532_at) / RFU KRTAP10-11 (11738290_x_at) / Fold change /veh KRTAP10-11 (11738290_x_at) / RFU MYO3A (11730013_a_at) / Fold change /veh MYO3A (11730013_a_at) / RFU EBF3 (11725865_a_at) / Fold change /veh EBF3 (11725865_a_at) / RFU CAMK2N1 (11719241_x_at) / Fold change /veh CAMK2N1 (11719241_x_at) / RFU C5orf56 (11738088_a_at) / Fold change /veh C5orf56 (11738088_a_at) / RFU OLFML3 (11715873_a_at) / Fold change /veh OLFML3 (11715873_a_at) / RFU LOC100653217 /// NTM (11731650_a_at) / Fold change /veh LOC100653217 /// NTM (11731650_a_at) / RFU MAPK11 (11762145_a_at) / Fold change /veh MAPK11 (11762145_a_at) / RFU FIZ1 (11724087_x_at) / Fold change /veh FIZ1 (11724087_x_at) / RFU OASL (11726364_x_at) / Fold change /veh OASL (11726364_x_at) / RFU SOX15 (11748057_x_at) / Fold change /veh SOX15 (11748057_x_at) / RFU CD79A (11719716_a_at) / Fold change /veh CD79A (11719716_a_at) / RFU HIST1H1D (11736915_at) / Fold change /veh HIST1H1D (11736915_at) / RFU CASKIN2 (11723855_a_at) / Fold change /veh CASKIN2 (11723855_a_at) / RFU LOC730098 (11760151_x_at) / Fold change /veh LOC730098 (11760151_x_at) / RFU OR4N2 (11742367_at) / Fold change /veh OR4N2 (11742367_at) / RFU PRRT2 (11749266_a_at) / Fold change /veh PRRT2 (11749266_a_at) / RFU SNX32 (11753110_a_at) / Fold change /veh SNX32 (11753110_a_at) / RFU CDHR5 (11726645_a_at) / Fold change /veh CDHR5 (11726645_a_at) / RFU RCAN1 (11760418_a_at) / Fold change /veh RCAN1 (11760418_a_at) / RFU FAM167A (11723789_a_at) / Fold change /veh FAM167A (11723789_a_at) / RFU FAM26E (11764081_at) / Fold change /veh FAM26E (11764081_at) / RFU ISYNA1 (11749810_s_at) / Fold change /veh ISYNA1 (11749810_s_at) / RFU ACY1 (11761880_at) / Fold change /veh ACY1 (11761880_at) / RFU 11764098_at / Fold change /veh 11764098_at / RFU SAMD14 (11745864_x_at) / Fold change /veh SAMD14 (11745864_x_at) / RFU NPB (11741838_a_at) / Fold change /veh NPB (11741838_a_at) / RFU TMPRSS6 (11731388_a_at) / Fold change /veh TMPRSS6 (11731388_a_at) / RFU KRTAP10-2 (11738614_at) / Fold change /veh KRTAP10-2 (11738614_at) / RFU ARHGAP8 /// PRR5-ARHGAP8 (11727945_x_at) / Fold change /veh ARHGAP8 /// PRR5-ARHGAP8 (11727945_x_at) / RFU KRTAP5-7 /// NADSYN1 (11734609_at) / Fold change /veh KRTAP5-7 /// NADSYN1 (11734609_at) / RFU RASL12 (11751679_a_at) / Fold change /veh RASL12 (11751679_a_at) / RFU CDKN2B (11736163_a_at) / Fold change /veh CDKN2B (11736163_a_at) / RFU PRF1 (11729649_at) / Fold change /veh PRF1 (11729649_at) / RFU, ZNF638 /// ZNF638-IT1 / Fold change vs veh, ZNF638 /// ZNF638-IT1 / RFU, PANK3 / Fold change vs veh, PANK3 / RFU, SH3YL1 / Fold change vs veh, SH3YL1 / RFU, ZEB2 / Fold change vs veh, ZEB2 / RFU, NRIP1 / Fold change vs veh, NRIP1 / RFU, PTTG1IP / Fold change vs veh, PTTG1IP / RFU, CAPN2 / Fold change vs veh, CAPN2 / RFU, MED14 / Fold change vs veh, MED14 / RFU, SNORA58 / Fold change vs veh, SNORA58 / RFU, C1orf63 / Fold change vs veh, C1orf63 / RFU, LRRFIP1 / Fold change vs veh, LRRFIP1 / RFU, NDUFAF7 / Fold change vs veh, NDUFAF7 / RFU, SLC12A2 / Fold change vs veh, SLC12A2 / RFU, IBTK / Fold change vs veh, IBTK / RFU, ESF1 / Fold change vs veh, ESF1 / Fold change vs veh, TMEM50B / RFU, TAOK1 / Fold change vs veh, TAOK1 / RFU, ACBD3 / Fold change vs veh, ACBD3 / RFU, TMA16 / Fold change vs veh, TMA16 / RFU, RWDD3 / Fold change vs veh, RWDD3 / RFU, BCAT1 / Fold change vs veh, BCAT1 / RFU, EDEM3 / Fold change vs veh, EDEM3 / RFU, TMEM33 / Fold change vs veh, TMEM33 / RFU, WDR75 / Fold change vs veh, WDR75 / RFU, AHCTF1 / Fold change vs veh, AHCTF1 / RFU, TFRC / Fold change vs veh, TFRC / RFU, ZDHHC17 / Fold change vs veh, ZDHHC17 / RFU, NOM1 / Fold change vs veh, NOM1 / RFU, ARL8B / Fold change vs veh, ARL8B / RFU, ZBTB11 / Fold change vs veh, ZBTB11 / RFU, TAMM41 / Fold change vs veh, TAMM41 / RFU, KIAA1704 /// LOC100996395 / Fold change vs veh, KIAA1704 /// LOC100996395 / RFU, ING1 / Fold change vs veh, ING1 / RFU, TRMT61B / Fold change vs veh, TRMT61B / RFU, FUBP3 / Fold change vs veh, FUBP3 / RFU, TP53 / Fold change vs veh, TP53 / RFU, TNKS2 / Fold change vs veh, TNKS2 / RFU, ZFP14 / Fold change vs veh, ZFP14 / RFU, ACTR2 / Fold change vs veh, ACTR2 / RFU, PPP3R1 / Fold change vs veh, PPP3R1 / RFU, PIK3R1 / Fold change vs veh, PIK3R1 / RFU, HNRNPA1 / Fold change vs veh, HNRNPA1 / RFU, RNF170 / Fold change vs veh, RNF170 / RFU, ZNF28 / Fold change vs veh, ZNF28 / RFU, RNGTT / Fold change vs veh, RNGTT / RFU, OGT / Fold change vs veh, OGT / RFU, BRD1 / Fold change vs veh, BRD1 / RFU, MARS / Fold change vs veh, MARS / RFU, ZNF655 / Fold change vs veh, ZNF655 / RFU, FAHD1 / Fold change vs veh, FAHD1 / RFU, BDP1 / Fold change vs veh, BDP1 / RFU, LRRCC1 / Fold change vs veh, LRRCC1 / RFU, ARID1A / Fold change vs veh, ARID1A / RFU, ZNF146 / Fold change vs veh, ZNF146 / RFU, ZNF330 / Fold change vs veh, ZNF330 / RFU, GPN3 / Fold change vs veh, GPN3 / RFU, C9orf123 / Fold change vs veh, C9orf123 / RFU, N4BP2L2 / Fold change vs veh, N4BP2L2 / RFU, ARFIP1 / Fold change vs veh, ARFIP1 / RFU, FAM179B / Fold change vs veh, FAM179B / RFU, BCL10 / Fold change vs veh, BCL10 / RFU, UHRF1BP1L / Fold change vs veh, UHRF1BP1L / RFU, BET1 / Fold change vs veh, BET1 / RFU, CNOT2 / Fold change vs veh, CNOT2 / RFU, ZNF268 / Fold change vs veh, ZNF268 / Fold change vs veh, ZNF507 / RFU, DGCR2 / Fold change vs veh, DGCR2 / RFU, WDSUB1 / Fold change vs veh, WDSUB1 / Fold change vs veh, HSP90B1 /// MIR3652 / RFU, ADSS / Fold change vs veh, ADSS / RFU, GK / Fold change vs veh, GK / RFU, ZNF148 / Fold change vs veh, ZNF148 / RFU, TAF9 / Fold change vs veh, TAF9 / RFU, SLC1A5 / Fold change vs veh, SLC1A5 / RFU, SLMO2 / Fold change vs veh, SLMO2 / RFU, ABCC4 / Fold change vs veh, ABCC4 / RFU, LOC101060439 /// RAP1B / Fold change vs veh, LOC101060439 /// RAP1B / RFU, RFX7 / Fold change vs veh, RFX7 / RFU, GTPBP10 / Fold change vs veh, GTPBP10 / RFU, CNEP1R1 / Fold change vs veh, CNEP1R1 / RFU, BIVM-ERCC5 /// ERCC5 / Fold change vs veh, BIVM-ERCC5 /// ERCC5 / RFU, ILF3 / Fold change vs veh, ILF3 / RFU 11762660_at / Fold change /veh 11762660_at / RFU VCAN (11757783_s_at) / Fold change /veh VCAN (11757783_s_at) / RFU DDX43 (11728927_at) / Fold change /veh DDX43 (11728927_at) / RFU KRT8 (11758188_x_at) / Fold change /veh KRT8 (11758188_x_at) / RFU NKD1 (11759106_at) / Fold change /veh NKD1 (11759106_at) / RFU SRD5A1 (11742802_a_at) / Fold change /veh SRD5A1 (11742802_a_at) / RFU TPSAB1 /// TPSB2 (11721975_s_at) / Fold change /veh TPSAB1 /// TPSB2 (11721975_s_at) / RFU GSTM3 (11746129_a_at) / Fold change /veh GSTM3 (11746129_a_at) / RFU IL23R (11737362_x_at) / Fold change /veh IL23R (11737362_x_at) / RFU TMEM51 (11727254_a_at) / Fold change /veh TMEM51 (11727254_a_at) / RFU PIWIL2 (11732686_x_at) / Fold change /veh PIWIL2 (11732686_x_at) / RFU ORM1 (11744905_x_at) / Fold change /veh ORM1 (11744905_x_at) / RFU CCDC152 (11743942_at) / Fold change /veh CCDC152 (11743942_at) / RFU ECM1 (11717891_a_at) / Fold change /veh ECM1 (11717891_a_at) / RFU IL23R (11748794_a_at) / Fold change /veh IL23R (11748794_a_at) / RFU TNFAIP8L3 (11732012_x_at) / Fold change /veh TNFAIP8L3 (11732012_x_at) / RFU MBOAT4 (11741988_at) / Fold change /veh MBOAT4 (11741988_at) / RFU 11764193_at / Fold change /veh 11764193_at / RFU TMEM53 (11763286_at) / Fold change /veh TMEM53 (11763286_at) / RFU MAGEB2 (11727129_at) / Fold change /veh MAGEB2 (11727129_at) / RFU TMEM200A (11744735_a_at) / Fold change /veh TMEM200A (11744735_a_at) / RFU CCDC152 (11751479_a_at) / Fold change /veh CCDC152 (11751479_a_at) / RFU FAM211A (11726209_a_at) / Fold change /veh FAM211A (11726209_a_at) / RFU RGS16 (11746705_a_at) / Fold change /veh RGS16 (11746705_a_at) / RFU VCAN (11755009_s_at) / Fold change /veh VCAN (11755009_s_at) / RFU RHOB (11743442_s_at) / Fold change /veh RHOB (11743442_s_at) / RFU RGS16 (11720943_a_at) / Fold change /veh RGS16 (11720943_a_at) / RFU RGS16 (11720944_at) / Fold change /veh RGS16 (11720944_at) / RFU, VPS4B / Fold change vs veh, VPS4B / RFU, CREB1 / Fold change vs veh, CREB1 / RFU, DNAJC13 / Fold change vs veh, DNAJC13 / RFU, GNAQ / Fold change vs veh, GNAQ / RFU, CDK5R1 / Fold change vs veh, CDK5R1 / RFU, ZRANB3 / Fold change vs veh, ZRANB3 / RFU, CUL4A / Fold change vs veh, CUL4A / RFU, CCNY / Fold change vs veh, CCNY / RFU, UFL1 / Fold change vs veh, UFL1 / RFU, COG3 / Fold change vs veh, COG3 / RFU, DIAPH2 / Fold change vs veh, DIAPH2 / RFU, SKA2 / Fold change vs veh, SKA2 / RFU, AFF3 / Fold change vs veh, AFF3 / RFU, LMF1 / Fold change vs veh, LMF1 / RFU, IPO11 / Fold change vs veh, IPO11 / RFU, DFFB / Fold change vs veh, DFFB / RFU, FOXP1 / Fold change vs veh, FOXP1 / RFU, CARD8 / Fold change vs veh, CARD8 / RFU, STRN3 / Fold change vs veh, STRN3 / RFU, ADK / Fold change vs veh, ADK / RFU, RASSF2 / Fold change vs veh, RASSF2 / RFU, WIPF1 / Fold change vs veh, WIPF1 / RFU, LARP1B / Fold change vs veh, LARP1B / RFU, RASA1 / Fold change vs veh, RASA1 / RFU, RB1 / Fold change vs veh, RB1 / RFU, PPFIA1 / Fold change vs veh, PPFIA1 / RFU, MAT2A / Fold change vs veh, MAT2A / RFU, CCT5 / Fold change vs veh, CCT5 / RFU, WDR92 / Fold change vs veh, WDR92 / RFU, CUX1 / Fold change vs veh, CUX1 / RFU, TTC7A / Fold change vs veh, TTC7A / RFU, TMEM135 / Fold change vs veh, TMEM135 / RFU, DEPTOR / Fold change vs veh, DEPTOR / RFU, CPM / Fold change vs veh, CPM / RFU, DNAJB6 / Fold change vs veh, DNAJB6 / RFU, CACNA2D3 / Fold change vs veh, CACNA2D3 / RFU, DTX4 / Fold change vs veh, DTX4 / RFU, TFCP2 / Fold change vs veh, TFCP2 / RFU, GMCL1 /// GMCL1P1 / Fold change vs veh, GMCL1 /// GMCL1P1 / RFU, AEBP2 / Fold change vs veh, AEBP2 / RFU, SNHG1 /// SNORD22 /// SNORD25 /// SNORD26 /// SNORD27 /// SNORD28 /// SNORD29 /// SNORD31 / Fold change vs veh, SNHG1 /// SNORD22 /// SNORD25 /// SNORD26 /// SNORD27 /// SNORD28 /// SNORD29 /// SNORD31 / Fold change (Aza/veh), C12orf56 (ProbeSet 11735607_a_at) / Fold change (ACY-1035/veh), C12orf56 (ProbeSet 11735607_a_at) / Fold change (Aza/veh), FGFR1OP (ProbeSet 11751329_s_at) / Fold change (ACY-1035/veh), FGFR1OP (ProbeSet 11751329_s_at) / Fold change (Aza/veh), VPS36 (ProbeSet 11739960_a_at) / Fold change (ACY-1035/veh), VPS36 (ProbeSet 11739960_a_at) / RFU SYPL1 (11715823_x_at) / Fold change /veh SYPL1 (11715823_x_at) / RFU IGFBP7 (11715501_s_at) / Fold change /veh IGFBP7 (11715501_s_at) / RFU REEP3 (11722064_at) / Fold change /veh REEP3 (11722064_at) / RFU IGLL1 (11728026_x_at) / Fold change /veh IGLL1 (11728026_x_at): dose or concentration left out as unconfirmed
# Settings: ProbeSet 11732165_x_at; LIST D
smiles,measurement,value
Nc1ccc(-c2cccs2)cc1NC(=O)c1ccc2c(c1)cc(C1CC1)n2CCN1CCOCC1 [ACY-1035],"RFU, LMF1",59.92 RFU
